pIC50: −log10 of the molar value. Where two headings read alike, the source gives them in different places.
What was measured:
[1] = biological target: T1, HCV NS3/4A protease complex, BMS strain (UniProt P27958, species not given/STRAIN_BMS); assay: FRET peptide assay to monitor HCV NS3/4A proteolytic activity (BMS strain); format: biochemical, Hepatitis C virus (genotype 1a)
T1 construct: said of H77 and J4L6S; fused on or other part: A three-lysine solubilising tail at the C-terminus of NS4A and a His tag (pET21b, Ni-NTA purification)
In short: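 Recombinant NS3/4A complexes (aa 1027–1711) from H77 (1a) and J4L6S (1b) carried a three-lysine tail, C1711G and C1454S. They were expressed in E. coli BL21(DE3) (0.5 mM IPTG, 22 h, 20 °C), then purified by Ni-NTA and Superdex-S200 to >90% purity. The BMS strain was a genotype 1a clone from patient serum.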

[2] = test system: human pancreatic chymotrypsin; assay: Specificity assay, chymotrypsin; format: biochemical; conditions: read-out: Chymotrypsin activity in the specificity assays
Protocol: (§1) The specificities of compounds of the present disclosure were determined against a variety of serine proteases: human neutrophil elastase (HNE), porcine pancreatic elastase (PPE) and human pancreatic chymotrypsin and one cysteine protease: human liver cathepsin B. In all cases, a 96-well plate format protocol using colorimetric p-nitroaniline (pNA) substrate or fluorometric Amino-Methyl-Coumarin (AMC) substrate, specific for each enzyme was used as described previously (PCT Patent Application No. WO 00/09543) with some modifications. All enzymes were purchased from Sigma or EMDbiosciences while the substrates were from Bachem.
(§2) Each pNA assay included a 2 h enzyme-inhibitor pre-incubation at room temperature followed by addition of substrate and hydrolysis to ˜15% conversion as measured on a Spectramax Pro microplate reader. The cathepsin B assay was initiated by adding substrate to a 10 min enzyme-inhibitor pre-incubation at room temperature, and the assay plate measured immediately using the Cytofluor Series 4000. Compound concentrations varied from 100 to 0.4 μM depending on their potency.
(§3) The final conditions for each assay were as follows: […]
(§4) The percentage of inhibition was calculated using the formula: [1−((UVinh−UVblank)/(UVctl−UVblank))]×100 […]

human liver cathepsin B = biological target: T2, human liver cathepsin B (Homo sapiens, UniProt P07858); assay: Specificity assay, cathepsin B; format: biochemical; conditions: read-out: Cathepsin B activity in the specificity assays
T2 construct: purchased Sigma or EMDbiosciences; host or cells: human liver (as named)
Protocol: as §1, §2, §3, §4

T1 sequence (P27958 1027-1657, change not shown, one chain of several): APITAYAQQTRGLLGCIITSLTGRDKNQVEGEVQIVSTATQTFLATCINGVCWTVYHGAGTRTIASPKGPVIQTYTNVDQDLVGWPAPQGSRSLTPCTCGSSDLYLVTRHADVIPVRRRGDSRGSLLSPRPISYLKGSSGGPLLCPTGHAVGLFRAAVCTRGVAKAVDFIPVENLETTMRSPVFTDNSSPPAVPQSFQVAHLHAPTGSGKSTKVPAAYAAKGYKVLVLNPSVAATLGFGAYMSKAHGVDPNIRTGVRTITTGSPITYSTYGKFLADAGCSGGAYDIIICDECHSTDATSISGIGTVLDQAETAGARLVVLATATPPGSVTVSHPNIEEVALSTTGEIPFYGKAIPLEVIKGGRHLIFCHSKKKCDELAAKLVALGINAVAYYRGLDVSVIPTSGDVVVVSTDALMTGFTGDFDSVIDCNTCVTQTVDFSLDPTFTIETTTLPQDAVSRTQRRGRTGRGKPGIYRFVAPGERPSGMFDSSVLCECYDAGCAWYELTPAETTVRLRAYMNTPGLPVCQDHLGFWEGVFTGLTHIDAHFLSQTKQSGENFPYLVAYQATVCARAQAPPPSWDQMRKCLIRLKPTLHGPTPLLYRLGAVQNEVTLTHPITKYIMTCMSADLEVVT

Structure (SMILES): CC(C)(C)OC(=O)N[C@H]1CCCCC/C=C\[C@@H]2C[C@@]2(C(=O)NS(=O)(=O)C2CC2)NC(=O)[C@@H]2C[C@@H](OC(=O)c3ccc(C#N)cc3)CN2C1=O [Compound 26, 18-(4-cyanobenzoyloxy)-14-tert-butoxycarbonylamino-4-cyclopropylsulfonylaminocarbonyl-2,15-dioxo-3,16-diazatricyclo-[14.3.0.0^4,6]-nonadec-7-ene]
- pIC50 ([1]; BMS strain, read-out: IC50 against the NS3/4A BMS strain in the enzyme assay): 9.11
- pIC50 ([1]; NS3/4A BMS strain, read-out: IC50 Range): > 7.00
- pIC50 [2]: < 4.00
- pIC50 (human liver cathepsin B): ≤ 4.00
- melting point: 164 to 166 °C

Reference: US7772183B2 (Bristol-Myers Squibb Company, priority 2005, dated 2010)
